In publication PMC12428754, “Testing Strategies for Metabolite-Mediated Neurotoxicity” (International Journal of Molecular Sciences, 2025):
Like-named read-outs stand apart in the source and are kept apart here.

Tests used:
LUHMES cells = assay: MitoMet (UKN4b) neurite outgrowth assay; type: cell-based, human; conditions: for IC25: read-out: BMC25 neurite outgrowth; for fold change between BMC25 values of parent and metabolite (potency ratio, parent divided by metabolite): listed under the metabolite, >1 = metabolite more potent
Procedure: Figure 1 (A) A strategy scheme to assess metabolite-mediated hazard in NAMs used for neurotoxicity or developmental neurotoxicity. Parent and metabolite compounds are tested separately in the respective assay. This strategy is applicable when there is prior knowledge of metabolite formation. A decision rule based on the relative toxicities (X) of the parent and metabolite may be applied to decide whether next-generation risk assessment (NGRA) should be applied to the metabolite. The value of X may be defined according to the problem formulation and the NAM used. (B) An assay scheme of the neurite outgrowth assay used here for exemplification: Proliferating LUHMES cells were replated one day before differentiation was initiated (day −1). After two days (day 2) in differentiation medium, the cells were replated into assay format (96-well). At this point, neurite growth was re-initiated. The cells were treated with toxicants 1 h after replating. Neurite outgrowth and viability were determined 24 h later, using automated high content imaging. (C) Comparison of neurite outgrowth of cultures treated with bromethalin and desmethyl-bromethalin one exemplary parent/metabolite pair (chemical structures shown). […] The curves are based on data from three independent experiments and were fitted using a four-parameter Hill function. Data points shown are arithmetic means of data from independent experiments ±SEM. In each independent experiment, the technical replicates were measured and averaged. A benchmark response (BMR) of 25% was used as specified in the detailed assay description, and the respective benchmark concentration (BMC25) was determined. […] (D) Microscopic images of calcein-stained LUHMES cells. Similar images are used for neurite quantification. Treatment with 40 nM of the parent (left) or metabolite (right). The scale bar in orange corresponds to 50 µm. […] It stands under panel C and to the right of panel D, and was assigned to C.
The MitoMet neurite outgrowth assay was performed as previously described. In brief, all cell culture dishes and flasks were pre-coated with 50 μg/mL poly-l-ornithine (PLO) and 1 μg/mL fibronectin. Proliferating LUHMES cells were maintained in AdvDMEM/F12 containing L-glutamine (2 mM), N2 supplement (1x), and FGF (40 ng/mL). For pre-differentiation, the cells were replated at a density of 46,000 cells/cm^2 one day prior to the induction of differentiation (defined as the day of differentiation, Day −1). Differentiation was initiated by exchanging the culture medium for AdvDMEM/F12 supplemented with L-glutamine (2 mM), N2 supplement (1x), dibutyryl-cAMP (1 mM), tetracycline (1 µg/mL), and GDNF (2 ng/mL). After two days of differentiation (Day 2), the cells were replated (100,000 cells/cm^2) into 96-well plates. The final assay medium consisted of glucose-free AdvDMEM/F12 supplemented with galactose (18 mM), L-glutamine (2 mM), and tetracycline (1 µg/mL). One hour after replating, the cells were treated with a 10× concentrated stock solution of the test compound. Neurite outgrowth and viability were determined 24 h later, using automated high content imaging.
(§1) The image acquisition and analysis were conducted according to established protocols. The cells were stained with Hoechst H-33342 (1 µg/mL) to visualise nuclei and calcein-AM (1 µM) to label viable cell structures. Fluorescent images were acquired using an automated imaging system.

[1] = system: hiPSC-derived immature human dorsal root ganglia neuron-like cells; assay: PeriTox (UKN5a) neurite outgrowth assay; type: cell-based
Procedure: PeriTox assay was performed as previously described. In brief, cryopreserved hiPSC-derived immature human dorsal root ganglia neuron-like cells were thawed and plated at a density of 100,000 cells/cm^2 into matrigel-coated 96-well plates. The cells were cultured in 75 µL PeriTox differentiation medium (PDM) consisting of 25% KSR-S and 75% N2-S media supplemented with 1.5 µM CHIR99021, 1.5 µM SU5402, and 5 µM DAPT (KSR-S: knockout DMEM with 15% serum replacement, 1x Glutamax, 1x nonessential amino acids, and […] beta-mercaptoethanol; N2-S: DMEM/F12, with 2 mM Glutamax, 0.1 mg/mL apotransferrin, 1.55 mg/mL glucose, 25 µg/mL insulin, […] putrescine, 30 nM selenium, and 20 nM progesterone). After one hour, 25 µL PDM with 4x concentrated serial dilutions of the test compounds was added to the cells.
as §1, with “system. An image analysis algorithm detected nuclei to define somatic regions, which were then excluded from the total calcein-positive area. The remaining signal was quantified as the neurite area.” for “system.”
In the first step, matched technical replicates were averaged. […] For visualisation, GraphPad Prism 9 was used. […]
Supplementary Figure S1: Comparison of data from the MitoMet test and the PeriTox test. A) Exposure scheme for the PeriTox test (UKN5a):
For testing, cryopreserved hiPSC-derived immature human dorsal root ganglia neuron-like cells were thawed and plated into 96-well plates. Cells were treated with toxicants at one h after plating. Neurite outgrowth and viability were determined at 24 h later, using automated high content imaging. B) Benchmark concentrations (BMC25) were calculated as a measure for “onset of toxicity” for the MitoMet (UKN4b; as described in Figure 1) and UKN5a assay. If no BMC could be determined, the highest tested concentration was used as surrogate endpoint. The arrows indicate the sensitivity shifts of parent vs metabolite in the respective assay. […]

[2] = Homo sapiens, benchmark response 25%, neurite area, 24 h exposure, three independent experiments

Row | SMILES | IC25 (LUHMES cells; [2]) | fold change between BMC25 values of parent and metabolite (potency ratio, parent divided by metabolite) (LUHMES cells) | effect on peripheral neurite outgrowth ([1]; result in words) | IC25 (LUHMES cells; Homo sapiens, 24 h) | IC25 (LUHMES cells; benchmark response 25%, neurite area, 24 h exposure, three independent experiments) | parent/metabolite potency ratio (BMC25) ([1]; listed under the metabolite)
1 | O=C(c1ccccc1)c1ccc(O)cc1 [4-Hydroxybenzophenone] | 78000 nM | > 6 fold | neither benzophenone nor its hydroxy metabolite showed any significant effect |  |  | 
2 | CN(c1c(Br)cc(Br)cc1Br)c1c([N+](=O)[O-])cc([N+](=O)[O-])cc1C(F)(F)F [Bromethalin] |  |  |  | 790 nM | 790 nM | 
3 | CCOCn1c(-c2ccc(Cl)cc2)c(C#N)c(Br)c1C(F)(F)F [Chlorfenapyr] | > 10000 nM |  |  |  |  | 
4 | N#Cc1c(-c2ccc(Cl)cc2)[nH]c(C(F)(F)F)c1Br [Tralopyril] | 350 nM | > 29 fold |  |  |  | 15
